The results in this text go back to patent US20050124631A1, “Inhibitors of polyq-aggregation” (priority 2001, published 2005).

Structures are written as SMILES.

For orientation: melting point means the temperature of the solid-liquid transition. Regarding `Cc1ccc(Cl)c2sc(N)nc12` [Example 2, 2-Amino-7-chloro-4-methylbenzothiazole], the melting point is 206 °C.
